Laboratory results reported in BindingDB's records for patent US10166249 (Bristol-Myers Squibb, 2019).

Molecular target: Sphingosine 1-phosphate receptor 1 (Homo sapiens, UniProt P21453)
Assay: hS1P1 ERK Phosphorylation (S1P1 pERK)
Experimental: hS1P1/CHO cells were plated into BD Amine 384-well plates the day before the assay. On the day of the assay, growth medium was removed and replaced with serum-free medium (Ham's F-12 Invitrogen) and incubated for 2 hours. Test compounds pre-diluted in HBSS (Gibco)/20 mM HEPES (Gibco) were transferred to the cell plates and incubated for 7 minutes at 37° C. Cells were lysed in lysis buffer (Perkin Elmer) and phospho-ERK was measured using the SureFire pERK kit (Perkin Elmer) as described by the manufacturer. Data was plotted as percentage activation of the test compound relative to the efficacy of 10 μM S1P.

Sphingosine 1-phosphate receptor 1, sequence (P21453 whole entry): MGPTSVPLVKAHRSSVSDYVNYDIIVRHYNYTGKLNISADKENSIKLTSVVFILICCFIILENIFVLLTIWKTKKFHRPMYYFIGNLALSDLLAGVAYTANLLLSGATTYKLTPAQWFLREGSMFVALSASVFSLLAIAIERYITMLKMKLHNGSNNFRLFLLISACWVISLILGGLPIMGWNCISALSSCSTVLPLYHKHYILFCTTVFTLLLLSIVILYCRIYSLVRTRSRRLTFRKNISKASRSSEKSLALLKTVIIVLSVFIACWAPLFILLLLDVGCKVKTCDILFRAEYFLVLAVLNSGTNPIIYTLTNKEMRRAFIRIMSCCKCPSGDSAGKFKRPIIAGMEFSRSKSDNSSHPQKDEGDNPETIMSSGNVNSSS

CCSCC[C@H]1CCc2cc([C@H]3CC[C@](N)(COP(=O)(O)O)C3)ccc2C1 [US10166249, Example 532]
EC50: < 10 nM
